Reference: patent US10588906B2, “Method of preventing hair loss or promoting hair growth by using phosphodiesterase 3 inhibitor” (SEOUL NATIONAL UNIVERSITY HOSPITAL, priority 2017, dated 2020)

Experiments:
[1] = tested on: ERK signaling pathway; assay: Western blotting of ERK phosphorylation in hDPCs; format: cell-based, human; conditions: 1 μM, within 15 minutes, FIG. 2
Procedure: To identify the effects of PDE 3 inhibitors on an ERK signaling pathway, which is a key cell proliferation-associated signaling pathway, human hDPCs were treated with cilostazol, cilostamide, trequinsin, or milrinone at a concentration of 1 μM for 0 minute, 5 minutes, 15 minutes, and 60 minutes, and western blotting was performed thereon.

[2] = tested on: human hair follicle-derived hair dermal papilla cells (hDPCs); assay: BrdU assay of cell division of hDPCs; format: cell-based; conditions: 0 μM to 10 μM, 48 hours, versus negative control, FIG. 1
Procedure: To evaluate the effect of PDE on the proliferation of hair follicle cells, human hair follicle-derived hDPCs were treated with cilostazol, cilostamide, trequinsin, or milrinone, which are well-known PDE 3 inhibitors, and then subjected to a BrdU assay.
First, primarily cultured hDPCs were treated with cilostazol, cilostamide, trequinsin, or milrinone at a concentration of 0 μM to 10 μM, cultured for 44 hours, treated with a BrdU reagent, and then allowed to react for 4 hours. After culturing for a total of 48 hours, the presence or absence of luminescence was measured using a luminometer for detecting BrdU, and cell division and activation degrees of the hDPCs were identified by comparison with a negative control.

[3] = tested on: MAPK-associated proteins (ERK, JNK, P-38); assay: Western blotting of MAPK-associated signaling proteins in mouse skin tissue; format: in vivo; conditions: mouse skin tissue after anagen induction experiment, FIG. 6
Procedure: To verify the effect of a PDE 3 inhibitor on a MAPK-associated signaling pathway, which is a cell proliferation-associated signaling pathway, western blotting was performed using mouse skin tissue.

[4] = tested on: angiogenesis around hair follicles; assay: CD31 immunofluorescence staining for angiogenesis around hair follicles; format: in vivo; conditions: mouse skin tissue
Procedure: To verify the effect of a PDE 3 inhibitor on angiogenesis around hair follicles, immunofluorescence staining with CD31, which is a blood vessel marker protein, was performed. More particularly, mouse skin tissue of a negative control and mouse skin tissue on which cilostazol was applied were rapidly cryotreated and prepared into blocks, and then each block was cut into a tissue section having a thickness of 15 μm using a cryotome and immobilized on a slide. In addition, each tissue section was allowed to react with antibodies against CD31, which is a blood vessel marker protein, as primary antibodies, and then treated with secondary antibodies with green fluorescence capable of detecting CD31, and the resulting tissue sections were observed using a fluorescence microscope and photographed, and the area of blood vessels was measured using an image analysis program.

[5] = tested on: human hair follicles; assay: Ki-67 immunofluorescence staining of cultured hair follicles; conditions: cultured for two days, FIG. 3B
Procedure: In addition, to identify cell proliferation of the cultured hair follicles through the test, immunofluorescence staining was performed using antibodies against Ki-67, which is a cell division marker. The hair follicles were treated with cilostazol, cultured for two days, and made into a tissue section, the tissue section was cut to a thickness of 4 μm and fixed on a slide, followed by reaction with Ki-67 treated with primary antibodies and treatment with secondary antibodies with green fluorescence capable of detecting Ki-67, and then the resulting section was observed using a fluorescence microscope and photographed, and the number of Ki-67 positive cells was identified. In addition, the nuclei of the hair follicles was stained using a DAPI reagent.

[6] = tested on: C57BL/6 mice; assay: Anagen induction test in C57BL/6 mouse model; format: in vivo; conditions: 0.2 wt % or 1 wt % applied once a day for three weeks
From the text: To identify hair growth effects by PDE 3 inhibitors, an anagen induction effect was examined using a C57BL/6 mouse model. Although the hair cycle of human hair varies depending on individuals, mice have the same hair cycle at an initial stage and all hairs enter into a telogen phase 7 weeks to 8 weeks after birth, which then turns into an anagen phase. To evaluate an anagen induction effect using these characteristics of mice, dorsal hairs of 8-week-old C57BL/6 mice in the telogen phase were removed, 0.2 wt % or 1 wt % of cilostazol was applied thereon once a day for three weeks, and then through comparison with a negative control and the case of 2 wt % of minoxidil as a positive control, the presence or absence of hair growth and an anagen induction degree were identified. In addition, skin tissue from which anagen hair grew was fixed with paraffin and stained with hematoxylin and eosin to conduct a histological examination, and the results thereof are shown in FIG. 5.

[7] = tested on: human hair follicles; assay: Ex vivo hair follicle organ culture test; conditions: 1 μM or 10 μM, day 2, 4 and 6, versus negative control, FIG. 3A
Procedure: To evaluate the effects of PDE 3 inhibitors on human hair follicle growth, an ex vivo hair follicle organic culture test was performed using cilostazol. More particularly, to conduct the ex vivo hair follicle organic culture test, scalp tissues obtained from volunteers were divided into follicular units, and parts below sebaceous glands of the divided hair follicles were cut off and the remaining parts of the hair follicles were used. The prepared hair follicles were cultured in a culture medium containing a negative control reagent or 1 μM or 10 μM cilostazol, the length of hair growing on day 2, day 4, and day 6 was measured, and then a hair growth promotion effect of the human hair follicles was identified by comparison with a negative control.

SMILES	phosphorylation of intracellular ERK proteins [1]	cell division of the hDPCs (BrdU) [2]	phosphorylation of the MAPK-associated signaling proteins (ERK, JNK, P-38) [3]	angiogenesis (CD31 staining) ([4]; FIG. 7A)	area of blood vessels ([4]; image analysis, FIG. 7B)	cell division in the human hair follicles (Ki-67 positive cells) [5]	proportion of a site on which anagen hair grew ([6]; FIG. 4)	formation of hair follicles (hematoxylin and eosin histology) ([6]; FIG. 5A)	anagen induction score ([6]; FIG. 5B)	skin thickness ([6]; FIG. 5C)	hair growth of the human hair follicles (length of hair) [7]
CN(C(=O)CCCOc1ccc2[nH]c(=O)ccc2c1)C1CCCCC1 [cilostamide]	increased	significantly increased									
O=C1CCc2cc(OCCCCc3nnnn3C3CCCCC3)ccc2N1 [cilostazol]	increased	significantly increased	increased	induced	increased	increased	significantly increased	promoted	increases	increases	promoted hair growth
Cc1[nH]c(=O)c(C#N)cc1-c1ccncc1 [milrinone]	increased	significantly increased									
COc1cc2c(cc1OC)-c1c/c(=N\c3c(C)cc(C)cc3C)n(C)c(=O)n1CC2 [trequinsin]	increased	significantly increased									
